How the values were obtained:
[1] = system: A-carrageenin-induced hyperalgesia; assay: A-carrageenin-induced peripheral inflammatory hyperalgesia in rat paw, paw latency (SLP); conditions: for ED50: Rattus norvegicus, po, 2 h, read-out: DE50 value; for peak effect / maximum effect time: time after administration, ipsilateral paw SLP
Procedure: In this study, an isobolographic analysis was conducted in order to test the interaction between Gabapentin and Meloxicam administered under three different conditions.
Sprague-Dawley male rats were used, with an approximate weight of 200-300 g. […] Rats were used once and they only received one dose of the drugs or the combination thereof.
Rats were placed in a spin cylinder to 4 rpm and one of their paws was connected to a computer terminal. After acclimatization for 1 hour, rats were administered 100 µl of 1% A-carrageenin solution on the plantar surface of one rear paw.
These fixed dosage ratios were selected by a DE50 value range for each drug and reciprocal ratio.
In order to determine the interaction nature, the dosage-derived relationship-response for the total dosage of Gabapentin and Meloxicam, was compared to the theoretical dose relationship-additive by a standard parallel line method.

[2] = cited from earlier work
[3] = system: α2δ, which are ancillary subunits of voltage-activated calcium channels; conditions: cited from earlier work
other common receptors = conditions: benzodiazepine, glutamate, NMDA, α1, α2, β-adrenergic, muscarinic, nicotinic, dopaminergic, histaminic, serotoninergic, opiate, canabinoid receptors, voltage-dependent calcium or sodium channels; cited from earlier work
rat stomachs = conditions: cited from earlier work
[4] = in its acid form; higher than Piroxicam; cited from earlier work
[5] = cited from earlier work; remark: listed apart in the source
[6] = Chromatographic testing of blood samples (plasma concentrations); assay type: in vivo, Sprague-Dawley male rats; conditions: blood samples taken after the assessments
Source text: After such assessments, rats were anesthetized with halothane and blood samples were taken for chromatographic testing.

[7] = cited from earlier work; remark: listed apart in the source

Row | SMILES | ED50 [1] | contralateral paw response latencies ([1]; non-swollen contralateral rear paw) | peak effect / maximum effect time [1] | time to maximum plasma concentrations ([2]; after the administration) | binding to plasmatic proteins ([2]; plasma) | affinity to α2δ proteins [3] | affinity to other common receptors (other common receptors) | gastric ulcerogenicity (rat stomachs) | membrane solubility relative to Piroxicam [4] | concentration ([5]; approximately 50 minutes after the administration) | adherence to plasmatic proteins ([5]; in vivo) | part of the administered dose eliminated in urine ([5]; the rest is excreted in faeces) | effect of additional presence of Meloxicam on plasma concentrations of Gabapentin [6] | solubility in water [7]
1 | NCC1(CC(=O)O)CCCCC1 [Gabapentin] | 19.2 mg/kg | did not show any alteration | 120 min | ≤ 3 h | 3% | high affinity | no affinity | – | – | – | – | – | – | –
2 | Cc1cnc(NC(=O)C2=C(O)c3ccccc3S(=O)(=O)N2C)s1 [Meloxicam, 4-hydroxy-2-methyl-N-(5-methyl-2-thiazolyl)-2H benzotiazine-3-carboxamide-1,1-dioxide] | 0.46 mg/kg | – | 120 min | – | – | – | – | minimal gastric ulcerogenicity | 10 fold | 1600 ng/mL | 99% | Around a half | does not alter | virtually insoluble
